≈ marks a conversion by molar mass, not a printed value.
Key:
[1] = Solubility test (equol concentration dissolved in water); format: physicochemical; conditions: thermodynamic from solid; 300 mg dried product A-1 or 10 mg equol in 10 mL water, stirred at room temperature 2 hours, 0.2-μm filtered; read-out: concentration of equol in the solution (solubility in water)
Procedure: The dried product A-1 containing an equol clathrate prepared in <<Preparation of Equol Clathrate>> described above was subjected to a solubility test. As a control, a solubility test was performed on equol (available from LC Laboratories) alone.
Specifically, solubility tests were conducted under the following conditions.
300 mg of the dried product A-1 containing an equol clathrate was weighed and mixed with 10 mL of water. Then, the mixture was stirred at room temperature for 2 hours. This liquid was filtered through a 0.2-μm filter, resulting in a solution B-1 of the dried product A-1 containing an equol clathrate. The equol concentration of the solution B-1 was analyzed.
Meanwhile, 10 mg of equol (available from LC Laboratories) was weighed and subjected to the same operation, resulting in a liquid C-1 containing equol alone. The concentration of equol dissolved in the solution C-1 was analyzed.

[2] = Pharmacokinetics (PK) analysis by oral administration in rats; format: in vivo, Crl:CD (SD) rats; conditions: single oral dose, rat plasma, 0.5% CMC suspension, equol clathrate 100 mg/kg, equol 6.3 mg/kg
Procedure: The equol clathrate A-1 prepared in <<Preparation of Equol Clathrate>> was subjected to pharmacokinetics (PK) analysis using 6-week-old Crl:CD (SD) rats by oral administration. As a control, pharmacokinetics (PK) analysis of equol (available from LC Laboratories) alone was also performed.
Specifically, the administered dose of the equol clathrate A-1 was 100 mg/kg, whereas the dose of equol (available from LC Laboratories) was 6.3 mg/kg, an amount considered to be equivalent to 100 mg/kg of the equol clathrate A-1.
The administered dose of the equol clathrate A-1 and the administered dose of equol were each administered as a single oral dose to 3 animals/group. The test substance used for the administration sample was suspended in 0.5% CMC aqueous solution, and the administered volume was 10 mL/kg.
PK was measured using plasma, and blood was collected at 0 min, 30 min, 1 h, 2 h, 6 h, 12 h, and 24 h. After 24 hours of blood collection, the rats were euthanized.
Note that, in Table 2, “Cmax” means maximum blood concentration, “Tmax” means time to reach Cmax, and “AUC0-24” means area.

## Oc1ccc([C@H]2COc3cc(O)ccc3C2)cc1 [equol]
[1]
  solubility at 2 h: 100 µg/mL (≈ 413 µM)
[2]; Crl:CD (SD), read-out: Cmax (maximum blood concentration)
  Cmax: 41.6 ng/mL
[2]
  AUC0-24 (area): 363 ng·h/mL

— patent US20240082424A1, “CLATHRATE IN WHICH EQUOL IS INCLUDED IN CYCLODEXTRIN, EQUOL-ABSORBENT COMPOSITION CONTAINING SAID CLATHRATE, AND PRODUCTION METHOD THEREFOR” (DAICEL CORPORATION, priority 2020, published 2024)
